# Assay results reported in patent US20240374763A1, “DIAGNOSIS AND MONITORING USING EXTRADOMAIN-B FIBRONECTIN TARGETED PROBES” (Case Western Reserve University, priority 2020, published 2024).
# No end group written: not given here.
# B1: ZD2-N3-Gd(HP-DO3A) (MT218) (peptide)
# peptide: TVRTSAD
# modifications: also: conjugated to Gd(HP-DO3A) by click reaction of alkynyl-ZD2 with N3-Gd(HP-DO3A), residue of attachment not given here, Gd complex
# notes: Small peptide conjugate of the clinical contrast agent gadoteridol; also called EDB-FN-targeted contrast agent; ZD2 targeted MRI contrast agent
# Legend:
# DLD1-DR cells = DLD1-DR cells developed with resistance to 5′-FU; cited from earlier work
# DLD-1 cells = details: cited from earlier work
# Relaxivity measurements = type: physicochemical; details: at 3 T, DPBS buffer
# Protocol: The T1 and T2 values of MT218 and Gd(HP-DO3A) solutions were determined using a 3T MRS 3000 scanner (MR Solutions, Guildford, UK). Solutions of MT218 were prepared at concentrations of 0, 0.25, 0.5, 1, and 2 mM in DPBS buffer (Gibco, Gaithersburg, MD). T1 values were measured using an inversion recovery-fast low angle shot (IR-FLASH) sequence (i=10 ms, TE=4 ms, FA=8°, echoes/frames=128, FOV=40 mm×40 mm, slice thickness =2 mm, number of averages=1, time delay=4000 ms, sample period=200, matrix=256×128). T2 values were obtained using a multi-echo multi-slice (MEMS) sequence (TE=15 ms, […], echoes=10, FOV: 40 mm×40 mm, slice thickness=1 mm, number of averages=1, matrix=256×192). The r1 and r2 relaxivities were calculated from the slopes of 1/T1 and 1/T2 vs. Gd concentration plots, respectively.
# CAL27 tumors = test: MRMI of OSCC flank xenografts, CAL27; type: in vivo, mice; details: gadoteridol 0.10 mmol/kg
# Protocol: (§1) Animal experiments were performed under an animal protocol approved by the Institutional Animal Care and Use Committee (IACUC) at Case Western Reserve University (CWRU, Cleveland, OH, USA). Female 4-week-old athymic nude mice purchased from the Jackson Laboratory (Bar Harbor, ME, USA) were housed in the Animal Core Facility at CWRU. Anesthetized mice were subcutaneously inoculated in the right flank with 4×10^6 GFP/luciferase-expressing OSCC cells (n=5 per cell line) in 100 μL of a 1:1 mixture of Matrigel HC (Corning) and DPBS. Tumor size was monitored with caliper measurements. After 4 weeks of growth, tumors were sufficiently large for MRI experiments.
# MRI experiments were performed with a 3T MRS-3000 system (MR Solutions, Surrey, UK). Tumor-bearing mice were imaged before and at 10, 20, and 30 minutes post-injection of the targeted contrast agent, MT218 (Molecular Theranostics, LLC, Cleveland, OH, USA), at a dose of 0.04 mmol/kg using a T1-weighted fast spin-echo axial sequence with respiratory gating (TR=305 ms, TE=11 ms, FOV=40×40 mm, slice thickness=1 mm, number of slices=15, Nav=2, matrix=256×248). […]
# (§2) Images were exported in DICOM format and analyzed using FIJI. Contrast-to-noise ratio (CNR) for each time point was calculated as the difference between the mean tumor intensity and the mean muscle intensity, divided by the standard deviation of noise.
# HSC3 tumors = test: MRMI of OSCC flank xenografts, HSC3; type: in vivo, mice; details: gadoteridol 0.10 mmol/kg
# Protocol: as §1
# MRI experiments were performed with a 3T MRS-3000 system (MR Solutions, Surrey, UK). Tumor-bearing mice were imaged before and at 10, 20, […] spin-echo axial sequence with respiratory gating (TR=305 ms, TE=11 ms, FOV=40×40 mm, slice thickness=1 mm, number of slices=15, Nav=2, matrix=256×248). This protocol was repeated on the same mice 2 days later using the untargeted clinical agent gadoteridol at the clinical dose of 0.10 mmol/kg.
# as §2
# SCC4 tumors = test: MRMI of OSCC flank xenografts, SCC4; type: in vivo, mice; details: gadoteridol 0.10 mmol/kg
# Protocol: as §1
# MRI experiments were performed with a 3T MRS-3000 system (MR Solutions, Surrey, UK). […] This protocol was repeated on the same mice 2 days later using the untargeted clinical agent gadoteridol at the clinical dose of 0.10 mmol/kg.
# as §2
# [1] = tested on: Capan-1 flank tumor xenografts; test: MRMI of Capan-1 flank tumor xenografts; type: in vivo, mice; details: 0.1 mmol/kg; MT218 at 15 minutes post-injection, maintained at least 35 minutes; Gd(HP-DO3A) for the duration of the experiment
# Protocol: (§3) For flank xenograft models, 4×10^6 Capan-1 cells suspended in 100 μL of a 6 mg/mL Matrigel (Corning, Corning, NY) solution was injected subcutaneously into the flank of eight-week-old female nu/nu mice. The tumor bearing mice were imaged after tumor volumes exceeded 300 mm^3. For orthotopic intrapancreatic models, the pancreas of four-week-old female nu/nu mice were surgically exposed and 1×10^6 BxPC3-GFP-Luc or PANC-1-GFP-Luc cells suspended in 100 μL of an Matrigel solution (6 mg/mL) was injected into the pancreatic tissue. Prior to imaging, growth of tumor was verified by bioluminescence imaging with intraperitoneal injection of d-luciferin on IVIS Spectrum system (Perkin Elmer, Waltham, MA).
# Flank tumor-bearing mice were anesthetized and a tail vein catheter inserted. MR image acquisition was performed on a 7T Biospin (Bruker, Billerica, MA) preclinical small animal scanner with a volume radiofrequency coil. Axial images were obtained using a multi-spin multi-echo (MSME) MRI sequence (500 ms TR, 8.1 ms TE, 900 FA, 4.50 cm×4.50 cm FOV, 1.50 mm slice thickness, 16 slices, 2 averages, 200×200 matrix, 0.0225×0.0225 cm/pixel resolution). Contrast agents were injected at a dose of 0.1 mmol/kg (100 μL) via the tail vein catheter, followed by a saline flush. Images of the tumors were acquired before contrast and at various time points after contrast administration. Gd(HP-DO3A) was used as a control.
# Image files were exported and analyzed in Horus software. ROIs were drawn in the tumor, liver, kidney, and muscle. Muscle ROIs were taken from muscle, with other structures (liver, kidney, tumor) identified after comparison with published images and comparison with anatomical landmarks or bioluminescent imaging. Size of ROIs drawn for image analysis are summarized in Supplemental Table S1. The contrast-to-noise ratio of the tumor (CNR) was calculated using the following equation, where σ_noise is the standard deviation of intensities from an ROI drawn outside of the mouse body: […]
# [2] = tested on: BxPC3-GFP-Luc intrapancreatic tumors; test: MRMI of BxPC3-GFP-Luc intrapancreatic tumors; type: in vivo, mice; details: 0.1 mmol/kg, 10 min post-injection
# Protocol: as §3
# (§4) Mice bearing intrapancreatic tumors were anesthetized and a tail vein catheter was inserted. Image acquisition was performed on a MR Solutions 3T MRS 3000 scanner with a mouse radiofrequency coil. Axial images were obtained using a Fast Spin Echo (FSE) MRI sequence (305 ms TR, 11 ms TE, 90° F.A, 4 cm×4 cm FOV, 1 mm slice thickness, 10 slices, echo train length=4, echo spacing=11 ms, 4 averages, 256×256 matrix, […] cm/pixel resolution) with respiratory gating. Images were acquired before contrast and at different time points after contrast injection at a dose of 0.1 mmol/kg (100 μL). For competitive binding experiments, a 5:1 molar ratio of free ZD2 peptide to MT218 was injected in mice bearing intrapancreatic BxPC3 tumor xenografts (n=3) at a dose of 0.1 mmol MT218/kg (100 μL). Images obtained on the MR Solutions 3T scanner were normalized using the Surscalereader.exe (MR Solutions, Guildford, UK) program supplied.
# Image files were exported and analyzed in Horus software. ROIs were drawn in the tumor, liver, kidney, and muscle. Muscle ROIs were taken from muscle, with other structures (liver, kidney, tumor) identified after comparison with published images and comparison with anatomical landmarks or bioluminescent imaging. Size of ROIs drawn for image analysis are summarized in Supplemental Table S1. The contrast-to-noise ratio of the tumor (CNR) was calculated using the following equation, where σ_noise is the standard deviation of intensities from an ROI drawn outside of the mouse body:
# Image contrast was reported as fold enhancement of contrast to noise ratio of postcontrast images over precontrast images using Fold Enhancement=CNRpost/CNRpre. Statistical analysis of CNR was performed in Minitab Express (Minitab Inc, State College, PA). One-way ANOVA with Fisher Individual Tests for Differences of Means post-hoc testing was performed to determine statistical significance between greater than two means (p<0.05). Student's T test was used to determine statistical significance between two means (p<0.05).
# [3] = tested on: PANC-1-GFP-Luc intrapancreatic tumor xenografts; test: MRMI of PANC-1-GFP-Luc intrapancreatic tumor xenografts; type: in vivo, mice; details: 0.1 mmol/kg, 10 min postinjection
# Protocol: as §3, §4
# Image files were exported and analyzed in Horus software. ROIs were drawn in the tumor, liver, kidney, and muscle. […] The contrast-to-noise ratio of the tumor (CNR) was calculated using the following equation, where σ_noise is the standard deviation of intensities from an ROI drawn outside of the mouse body: […]
# [4] = target: extradomain-B fibronectin (EDB-FN) (human) (UniProt P02751); test: cell-based or functional assay
# Sequence of extradomain-B fibronectin (EDB-FN) (human) (P02751 32-2477): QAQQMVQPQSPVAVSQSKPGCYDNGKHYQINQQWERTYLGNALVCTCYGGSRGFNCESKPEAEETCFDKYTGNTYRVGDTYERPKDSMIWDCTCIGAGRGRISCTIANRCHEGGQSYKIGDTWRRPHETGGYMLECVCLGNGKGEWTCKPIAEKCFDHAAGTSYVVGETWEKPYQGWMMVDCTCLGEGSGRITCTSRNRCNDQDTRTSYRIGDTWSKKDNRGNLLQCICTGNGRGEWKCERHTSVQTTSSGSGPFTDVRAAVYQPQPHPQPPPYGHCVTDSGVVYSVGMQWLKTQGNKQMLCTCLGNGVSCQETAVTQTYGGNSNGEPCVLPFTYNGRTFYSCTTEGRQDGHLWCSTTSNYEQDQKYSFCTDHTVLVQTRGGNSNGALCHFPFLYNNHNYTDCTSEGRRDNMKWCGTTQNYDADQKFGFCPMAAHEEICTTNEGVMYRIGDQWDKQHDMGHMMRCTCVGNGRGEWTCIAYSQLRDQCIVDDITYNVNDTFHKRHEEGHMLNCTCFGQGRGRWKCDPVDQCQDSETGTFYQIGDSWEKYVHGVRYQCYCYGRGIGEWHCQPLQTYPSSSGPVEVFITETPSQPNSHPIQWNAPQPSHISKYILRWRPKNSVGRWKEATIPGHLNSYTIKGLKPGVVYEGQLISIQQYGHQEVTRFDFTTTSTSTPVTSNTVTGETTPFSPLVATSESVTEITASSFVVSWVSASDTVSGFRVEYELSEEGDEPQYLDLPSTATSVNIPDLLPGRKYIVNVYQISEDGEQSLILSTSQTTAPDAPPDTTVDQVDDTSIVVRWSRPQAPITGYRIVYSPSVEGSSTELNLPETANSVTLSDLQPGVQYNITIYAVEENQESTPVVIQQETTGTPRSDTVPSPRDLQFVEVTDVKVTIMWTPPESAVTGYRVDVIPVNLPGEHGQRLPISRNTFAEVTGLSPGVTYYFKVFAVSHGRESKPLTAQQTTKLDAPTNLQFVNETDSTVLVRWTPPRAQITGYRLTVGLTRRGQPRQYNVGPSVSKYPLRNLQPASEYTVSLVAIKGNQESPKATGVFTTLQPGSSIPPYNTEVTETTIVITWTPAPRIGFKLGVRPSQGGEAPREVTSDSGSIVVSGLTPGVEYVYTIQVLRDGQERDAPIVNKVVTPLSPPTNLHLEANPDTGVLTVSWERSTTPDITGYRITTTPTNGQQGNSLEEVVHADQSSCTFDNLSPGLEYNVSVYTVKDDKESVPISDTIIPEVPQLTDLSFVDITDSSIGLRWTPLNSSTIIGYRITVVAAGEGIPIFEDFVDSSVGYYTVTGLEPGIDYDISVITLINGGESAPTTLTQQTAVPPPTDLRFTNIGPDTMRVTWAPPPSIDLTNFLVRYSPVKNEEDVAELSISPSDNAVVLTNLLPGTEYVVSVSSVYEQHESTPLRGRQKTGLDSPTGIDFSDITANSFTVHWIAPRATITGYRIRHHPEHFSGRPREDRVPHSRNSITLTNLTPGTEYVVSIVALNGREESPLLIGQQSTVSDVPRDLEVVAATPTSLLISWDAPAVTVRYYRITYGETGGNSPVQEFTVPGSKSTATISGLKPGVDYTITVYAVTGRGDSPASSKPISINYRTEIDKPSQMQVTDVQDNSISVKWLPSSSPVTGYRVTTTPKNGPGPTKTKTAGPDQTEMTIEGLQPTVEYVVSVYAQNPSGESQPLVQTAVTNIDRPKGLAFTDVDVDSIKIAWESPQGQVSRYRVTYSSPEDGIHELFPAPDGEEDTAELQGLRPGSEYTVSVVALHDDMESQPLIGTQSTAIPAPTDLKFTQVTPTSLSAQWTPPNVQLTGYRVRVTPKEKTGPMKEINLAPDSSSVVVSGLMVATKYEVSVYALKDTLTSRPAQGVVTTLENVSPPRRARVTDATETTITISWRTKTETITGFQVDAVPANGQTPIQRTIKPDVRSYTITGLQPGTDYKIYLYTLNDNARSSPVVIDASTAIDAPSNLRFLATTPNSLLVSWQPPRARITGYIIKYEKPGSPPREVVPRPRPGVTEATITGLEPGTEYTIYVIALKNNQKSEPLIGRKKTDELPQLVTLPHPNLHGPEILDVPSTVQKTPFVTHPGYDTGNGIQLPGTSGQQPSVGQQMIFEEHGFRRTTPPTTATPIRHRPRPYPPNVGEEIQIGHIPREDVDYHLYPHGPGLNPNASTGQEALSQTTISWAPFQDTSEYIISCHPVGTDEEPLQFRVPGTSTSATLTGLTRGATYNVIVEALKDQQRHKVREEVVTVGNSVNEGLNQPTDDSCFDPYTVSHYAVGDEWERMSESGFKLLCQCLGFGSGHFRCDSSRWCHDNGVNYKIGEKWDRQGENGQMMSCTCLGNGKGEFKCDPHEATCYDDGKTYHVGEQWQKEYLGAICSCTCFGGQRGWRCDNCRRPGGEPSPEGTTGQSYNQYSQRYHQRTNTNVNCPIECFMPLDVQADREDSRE
# [5] = target: T1, EDB fragment of FN (expressed in E. coli, labelled with NT-647) (UniProt P02751 1266-1356, limits assumed, labelled with amine-reactive dye NT-647); test: microscale thermophoresis, NT-647-labelled EDB fragment at fixed concentration, MT218 titrated, 25 °C
# T1 construct: domain: EDB fragment of FN
# T1 sequence (P02751 1266-1356 limits assumed): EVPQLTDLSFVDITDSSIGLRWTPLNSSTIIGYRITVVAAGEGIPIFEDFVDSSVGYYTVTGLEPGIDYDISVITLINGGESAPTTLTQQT
# Protocol: (§5) The binding affinity of MT218 was determined with microscale thermophoresis (MST) using a Nanotemper™ Monolith NT.115 instrument (NanoTemper Technologies, Munich, Germany). The EDB fragment of FN was expressed in E. coli, purified, and labelled with amine-reactive dye NT-647. MT218 was dissolved into assay buffer (50 mM PBS w/0.05% Tween-20). This solution was further diluted using assay buffer to give a series of MT218 working solutions. Each MT218 working solution was then mixed with a fixed concentration of fluorescently labeled EDB fragment. The mixtures of MT218 and EDB were then loaded into standard capillaries, and MST measurements were performed at 25° C. using 20-80% light-emitting diode power and 40% infrared-laser power at varying concentrations of MT218.
# MT218 is a small molecular conjugate of ZD2 peptide to a macrocyclic clinical MRI contrast agent Gd(HP-DO3A). […] The T₁ and T₂ relaxivities of MT218 were measured to be 6.07±1.13 s⁻¹ mM⁻¹ and 8.20±0.18 s⁻¹ mM⁻¹, respectively, at 3 T. T₁ and T₂ relaxivities of Gd(HP-DO3A) were measured to be 3.20±0.96 s⁻¹ mM⁻¹ and 5.12±0.18 s⁻¹ mM⁻¹, respectively, at 3 T.
# [6] = target: T1, EDB fragment of FN (expressed in E. …); test: microscale thermophoresis, MT218 titrated against a fixed concentration of NT-647-labelled EDB fragment, 25 °C [panel B]
# Protocol: as §5
molecule,measurement,setting,value
"O=c1[nH]cc(F)c(=O)[nH]1 [5′-FU, 5′-fluorouracil]",IC50,DLD1-DR cells,211 µM
same,IC50,DLD-1 cells,2.5 µM
"Gd(HP-DO3A) [gadoteridol, reference compound]",T1 relaxivity,Relaxivity measurements,3.20 ± 0.96 s⁻¹ mM⁻¹
same,T2 relaxivity,Relaxivity measurements,5.12 ± 0.18 s⁻¹ mM⁻¹
same,average maximum enhancement (CNR),CAL27 tumors,2.27±0.18
same,average maximum enhancement (CNR),HSC3 tumors,2.18±0.07
same,average maximum enhancement (CNR),SCC4 tumors,2.57±0.28
same,increase of contrast to noise ratio (CNR),[1],1.77 fold
same,tumor CNR increase,[2],approximately 2.5 fold
same,intratumoral CNR increase,[3],2.35 fold
B1,"tumor CNR increase (MRMI) in the BxPC3-GFP-Luc intrapancreatic model, MT218 co-injected with an excess of free ZD2 peptide",[4],2.5 fold
same,"tumor CNR increase (MRMI) in the BxPC3-GFP-Luc intrapancreatic model, MT218 without the free peptide",[4],4.5 fold
same,Kd,[5],3.2 µM
same,EC50 (read off the curve),[6],~3 µM
